From US20250326771A1, “PIPERAZINE DERIVATIVES USEFUL IN HIV THERAPY” (VIIV HEALTHCARE COMPANY, priority 2022, published 2025)
Where two headings read alike, the source gives them in different places.

Tests used:
XIAP-BIR2 = XIAP-BIR2 (Homo sapiens (Human), UniProt P98170); assay: BIR binding assay (FRET competition), XIAP BIR2
Procedure: The BIR domain binding assays are FRET based competition assays that utilize His-tagged versions of each of the BIR2 and BIR3 domains from cIAP1, cIAP2, and XIAP (each domain assayed separately) each at a custom optimal concentration and a probe, 200 nM SMAC/DIABLO peptide AVPIAQKSE labelled with AlexaFluor647 (part #crb 1110326h, Discovery Peptides). The assay is conducted in 50 mM HEPES, […], 1 mM CHAPS, 5% Glycerol, 1 mM DTT, in dI water with a final pH of 7.4 and final volume of 20 uL. Final protein domain concentrations are: 50 nM cIAP1-BIR3 (Part #APT-11-370 Reaction Biology), 100 nM XIAP-BIR3 (Part #APT-11-351 Reaction Biology), 200 nM XIAP-BIR2 (Part #APT-11-470 Reaction Biology), 325 nM cIAP2-BIR2 (Part #APT-11-489 Reaction Biology), 50 nM cIAP2-BIR3 (Part #APT-11-372 Reaction Biology), 325 nM cIAP1-BIR2 (Part #APT-11-487 Reaction Biology). Compounds were plated using a HP Tecan D300 printer in a final total volume of 202 nl and DMSO concentration normalized across the 15-point, 3-fold dilution series. Peptide and probe were prepared at 2× relative to the concentrations above in binding buffer, 10 uL added to the prepared compound plates, and incubated for 60 minutes. LANCE Eu-W1024 (part #AD0401 Perkin Elmer #, vendor) was prepared at 2× concentration in binding buffer for final concentration of 2 nM, 10 uL added to each well, and plates incubated for 30 minutes. Plates were read on an ENVISION multifunction plate reader with […] laser excitation to obtain the 615 nm/665 nm emission ratio as indicative of probe:protein proximity. Data was analyzed using GraphPad PRISM and curves fit using log(inhibitor) vs. response—Variable slope (four […] method to obtain IC50 and pIC50 values.

cIAP1-BIR3 = cIAP1-BIR3 (Homo sapiens (Human), UniProt Q13490); assay: BIR binding assay (FRET competition), cIAP1 BIR3; details: for cIAP1 BIR3 vs BIR2 separation window: fold separation (FS) for cIAP1
Sequence of cIAP1-BIR3 (Q13490 253-363): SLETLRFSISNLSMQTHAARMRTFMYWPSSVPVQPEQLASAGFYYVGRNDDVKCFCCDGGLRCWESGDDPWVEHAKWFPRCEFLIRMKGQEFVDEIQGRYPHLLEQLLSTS
Procedure, shortened: (§1)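 Each domain is run separately at its own level: 50 nM cIAP1-BIR3, 100 nM XIAP-BIR3, 325 nM for cIAP1-BIR2 or cIAP2-BIR2. Probe is a 200 nM fluorescent SMAC peptide, and the value is IC50 from FRET competition.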

XIAP-BIR3 = XIAP-BIR3 (Homo sapiens (Human), UniProt P98170); assay: BIR binding assay (FRET competition), XIAP BIR3; details: for XIAP BIR3 vs BIR2 separation window: fold separation (FS) for XIAP
Sequence of XIAP-BIR3 (P98170 241-356): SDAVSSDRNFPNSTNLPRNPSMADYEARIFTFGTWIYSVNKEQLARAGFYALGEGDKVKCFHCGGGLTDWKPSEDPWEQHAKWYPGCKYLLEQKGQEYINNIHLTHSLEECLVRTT
Procedure, shortened: as §1

cIAP1-BIR2 = cIAP1-BIR2 (Homo sapiens (Human), UniProt Q13490); assay: BIR binding assay (FRET competition), cIAP1 BIR2
Sequence of cIAP1-BIR2 (Q13490 173-257): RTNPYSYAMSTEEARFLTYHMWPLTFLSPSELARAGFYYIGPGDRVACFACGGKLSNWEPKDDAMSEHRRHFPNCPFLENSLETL
Procedure, shortened: as §1

cIAP2-BIR3 = cIAP2-BIR3 (Homo sapiens (Human), UniProt Q13489); assay: BIR binding assay (FRET competition), cIAP2 BIR3; details: for cIAP2 BIR3 vs BIR2 separation window: fold separation (FS) for cIAP2
Sequence of cIAP2-BIR3 (Q13489 238-349): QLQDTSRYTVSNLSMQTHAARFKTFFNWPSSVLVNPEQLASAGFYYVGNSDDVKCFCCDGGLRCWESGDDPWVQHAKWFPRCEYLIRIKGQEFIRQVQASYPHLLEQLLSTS

cIAP2-BIR2 = cIAP2-BIR2 (Homo sapiens (Human), UniProt Q13489); assay: BIR binding assay (FRET competition), cIAP2 BIR2
Sequence of cIAP2-BIR2 (Q13489 158-242): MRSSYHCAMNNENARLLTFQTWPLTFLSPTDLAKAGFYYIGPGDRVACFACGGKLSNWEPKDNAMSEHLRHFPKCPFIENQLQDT
Procedure, shortened: as §1

[1] = test system: Jurkat HIV-luciferase clones; assay: Jurkat latency reversal assay; format: cell-based; details: Homo sapiens, 48 h; Jurkat latency reversal assay potency; read-out: Jurkat pEC50 (converted)
Procedure, shortened: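 Latency reversal was scored as provirus-driven luciferase luminescence in pooled Jurkat HIV-luc clones after 48 h compound exposure at 37° C. EC50 and maximal activation over vehicle were fitted with a four-parameter logistic model.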

[2] = FRET competition, read-out: XIAP BIR2 (pIC50) (converted)

Sequence of XIAP-BIR2 (P98170 124-240): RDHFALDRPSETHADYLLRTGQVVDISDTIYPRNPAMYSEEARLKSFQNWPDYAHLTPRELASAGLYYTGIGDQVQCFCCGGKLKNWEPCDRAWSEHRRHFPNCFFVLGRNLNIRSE

Structure (SMILES) | IC50 (XIAP-BIR2; [2]) | IC50 (cIAP1-BIR3) | cIAP1 BIR3 vs BIR2 separation window (cIAP1-BIR3) | IC50 (XIAP-BIR3) | XIAP BIR3 vs BIR2 separation window (XIAP-BIR3) | IC50 (cIAP1-BIR2) | IC50 (cIAP2-BIR3) | cIAP2 BIR3 vs BIR2 separation window (cIAP2-BIR3) | IC50 (cIAP2-BIR2) | EC50 [1] | IC50 (XIAP-BIR2)
C[C@@H]1CN(CC(=O)N2CC(C)(C)c3[nH]c(=O)c(Cc4ccc(F)cc4)cc32)[C@@H](CN2CCO[C@H](C(=O)Nc3cccc(NC(=O)[C@@H]4CN(C[C@H]5CN[C@H](C)CN5CC(=O)N5CC(C)(C)c6[nH]c(=O)c(Cc7ccc(F)cc7)cc65)CCO4)c3)C2)CN1 [Compound 140, (2S,2′S)-N,N′-(1,3-phenylene)bis(4-(((2R,5R)-1-(2-(6-(4-fluorobenzyl)-3,3-dimethyl-5-oxo-2,3,4,5-tetrahydro-1H-pyrrolo[3,2-b]pyridin-1-yl)-2-oxoethyl)-5-methylpiperazin-2-yl)methyl)morpholine-2-carboxamide)] | 10000 to 51300 nM | 7.94 to 15.8 nM | +++ (10,000>FS>1,000) | 15.8 to 31.6 nM | ++++ (FS>10,000) | 1000 to 3160 nM | 7.94 to 15.8 nM | +++ (10,000>FS>1,000) | 1000 to 3160 nM | 63.1 to 316 nM | 
Cc1c(NC(=O)[C@@H]2CN(C[C@H]3CN[C@H](C)CN3CC(=O)N3CC(C)(C)c4[nH]c(=O)c(Cc5ccc(F)cc5)cc43)CCO2)cccc1NC(=O)[C@@H]1CN(C[C@H]2CN[C@H](C)CN2CC(=O)N2CC(C)(C)c3[nH]c(=O)c(Cc4ccc(F)cc4)cc32)CCO1 [Compound 141, (2S,2′S)-N,N′-(2-methyl-1,3-phenylene)bis(4-(((2R,5R)-1-(2-(6-(4-fluorobenzyl)-3,3-dimethyl-5-oxo-2,3,4,5-tetrahydro-1H-pyrrolo[3,2-b]pyridin-1-yl)-2-oxoethyl)-5-methylpiperazin-2-yl)methyl)morpholine-2-carboxamide)] | 10000 to 51300 nM | 7.94 to 15.8 nM | +++ (10,000>FS>1,000) | 15.8 to 31.6 nM | +++ (10,000>FS>1,000) | 1000 to 3160 nM | 7.94 to 15.8 nM | +++ (10,000>FS>1,000) | 1000 to 3160 nM | 12.6 to 63.1 nM | 
C[C@@H]1CN(CC(=O)N2CC(C)(C)c3ncc(Nc4ccc(F)cc4)cc32)[C@@H](CN2CCO[C@H](COc3cccc(OC[C@@H]4CN(C[C@H]5CN[C@H](C)CN5CC(=O)N5CC(C)(C)c6ncc(Nc7ccc(F)cc7)cc65)CCO4)c3)C2)CN1 [Compound 143, -[6-(4-fluoroanilino)-3,3-dimethyl-2H-pyrrolo[3,2-b]pyridin-1-yl]-2-[(2R,5R)-2-[[(2S)-2-[[3-[[(2S)-4-[[(2R,5R)-1-[2-[6-(4-fluoroanilino)-3,3-dimethyl-2H-pyrrolo[3,2-b]pyridin-1-yl]-2-oxo-ethyl]-5-methyl-piperazin-2-yl]methyl]morpholin-2-yl]methoxy]phenoxy]methyl]morpholin-4-yl]methyl]-5-methyl-piperazin-1-yl]ethenone] | 10000 to 51300 nM | 31.6 to 501 nM |  | 31.6 to 501 nM | +++ (10,000>FS>1,000) | 10000 to 51300 nM | 15.8 to 31.6 nM | ++++ (FS>10,000) | 10000 to 51300 nM | 316 to 3310 nM | 
C[C@@H]1CN(CC(=O)N2CC(C)(C)c3ncc(N(C)c4ccc(F)cc4)cc32)[C@@H](CN2CCO[C@H](COc3cccc(OC[C@@H]4CN(C[C@H]5CN[C@H](C)CN5CC(=O)N5CC(C)(C)c6ncc(N(C)c7ccc(F)cc7)cc65)CCO4)c3)C2)CN1 [Compound 144] | 10000 to 51300 nM | 31.6 to 501 nM | +++ (10,000>FS>1,000) | 31.6 to 501 nM | +++ (10,000>FS>1,000) | 10000 to 51300 nM | 31.6 to 501 nM | +++ (10,000>FS>1,000) | 10000 to 51300 nM | 316 to 3310 nM | 
C[C@@H]1CN(CC(=O)N2CC(C)(C)c3ncc(Cc4ccc(F)cc4)cc32)[C@@H](CN2CCO[C@H](COc3cccc(OC[C@@H]4CN(C[C@H]5CN[C@H](C)CN5CC(=O)N5CC(C)(C)c6ncc(Cc7ccc(F)cc7)cc65)CCO4)c3)C2)CN1 [Compound 145] | 10000 to 51300 nM | 7.94 to 15.8 nM | +++ (10,000>FS>1,000) | 31.6 to 501 nM | ++++ (FS>10,000) | 3160 to 10000 nM | 7.94 to 15.8 nM | +++ (10,000>FS>1,000) | 10000 to 51300 nM | 12.6 to 63.1 nM | 
C[C@@H]1CN(CC(=O)N2CC(C)(C)c3ncc(Cc4cccnc4)cc32)[C@@H](CN2CCO[C@H](COc3cccc(OC[C@@H]4CN(C[C@H]5CN[C@H](C)CN5CC(=O)N5CC(C)(C)c6ncc(Cc7cccnc7)cc65)CCO4)c3)C2)CN1 [Compound 146] |  | 1.38 to 7.94 nM | ++++ (FS>10,000) | 31.6 to 501 nM | ++++ (FS>10,000) | 10000 to 51300 nM | 1.38 to 7.94 nM | ++++ (FS>10,000) | 10000 to 51300 nM | 316 to 3310 nM | 10000 to 51300 nM
C[C@@H]1CN(CC(=O)N2CC(C)(C)c3ncc(Cc4ccccc4)cc32)[C@@H](CN2CCO[C@H](COc3cccc(OC[C@@H]4CN(C[C@H]5CN[C@H](C)CN5CC(=O)N5CC(C)(C)c6ncc(Cc7ccccc7)cc65)CCO4)c3)C2)CN1 [Compound 150] |  | 7.94 to 15.8 nM | +++ (10,000>FS>1,000) | 15.8 to 31.6 nM | ++++ (FS>10,000) | 3160 to 10000 nM | 7.94 to 15.8 nM | ++++ (FS>10,000) | 10000 to 51300 nM | 12.6 to 63.1 nM | 10000 to 51300 nM
C[C@@H]1CN(CC(=O)N2CC(C)(C)c3[nH]c(=O)c(Cc4ccc(F)cc4)cc32)[C@@H](CN2CCN(CCc3cn(CCC(=O)N4CCN(C[C@H]5CN[C@H](C)CN5CC(=O)N5CC(C)(C)c6[nH]c(=O)c(Cc7ccc(F)cc7)cc65)[C@H](C)C4)nn3)C[C@H]2C)CN1 [Compound 154] | 10000 to 51300 nM | 7.94 to 15.8 nM | +++ (10,000>FS>1,000) | 7.94 to 15.8 nM | ++++ (FS>10,000) | 1000 to 3160 nM | 7.94 to 15.8 nM | +++ (10,000>FS>1,000) | 1000 to 3160 nM | 63.1 to 316 nM | 
C[C@@H]1CN(CC(=O)N2CC(C)(C)c3[nH]c(=O)c(Cc4ccc(F)cc4)cc32)[C@@H](CN2CCN(Cc3cn(CC(=O)N4CCN(C[C@H]5CN[C@H](C)CN5CC(=O)N5CC(C)(C)c6[nH]c(=O)c(Cc7ccc(F)cc7)cc65)[C@H](C)C4)nn3)C[C@H]2C)CN1 [Compound 155] | 10000 to 51300 nM | 1.38 to 7.94 nM | +++ (10,000>FS>1,000) | 15.8 to 31.6 nM | ++++ (FS>10,000) | 1000 to 3160 nM | 7.94 to 15.8 nM | +++ (10,000>FS>1,000) | 1000 to 3160 nM | 316 to 3310 nM | 
C[C@@H]1CN(CC(=O)N2CC(C)(C)c3[nH]c(=O)c(Cc4ccc(F)cc4)cc32)[C@@H](CN2CCN(Cc3cn(CCC(=O)N4CCN(C[C@H]5CN[C@H](C)CN5CC(=O)N5CC(C)(C)c6[nH]c(=O)c(Cc7ccc(F)cc7)cc65)[C@H](C)C4)nn3)C[C@H]2C)CN1 [Compound 156] | 10000 to 51300 nM | 15.8 to 31.6 nM | ++ (1,000>FS>100) | 15.8 to 31.6 nM | ++++ (FS>10,000) | 1000 to 3160 nM | 7.94 to 15.8 nM | +++ (10,000>FS>1,000) | 1000 to 3160 nM | 63.1 to 316 nM | 
